In patent publication US11142524B2, “Substituted-3H-imidazo[4,5-c]pyridine and 1H-pyrrolo[2,3-c]pyridine series of novel Ectonucleotide Pyrophosphatase/Phosphodiesterase-1 (ENPP1) and stimulator for interferon genes (STING) modulators as cancer immunotherapeutics” (Stingray Therapeutics, Inc., priority 2018, dated 2021):
Read-outs that look alike come from different tables or passages of the source.

What was measured:
[1] = biological target: Recombinant Human ENPP-2/Autotaxin Protein (Homo sapiens (Human), UniProt Q13822); experiment: ENPP2 Inhibition Assay; format: biochemical
Method: Assay Buffer: 10 mM CaCl2, 5 mM MgCl2, 50 mM Tris, 0.02% Brij-35, pH 8.5. Substrate: 2 mM Bis(p-Nitrophenyl) Phosphate Sodium Salt (Sigma Cat # N3002). Enzyme: 0.2 ng/μL Recombinant Human ENPP-2/Autotaxin Protein (R&D Cat #5255-EN), PF-3080 in DMSO in 96-well clear assay plates
An eight point serial dilution of drugs was prepared in 10× in assay buffer with the final assay concentrations starting at 10 μM, 3 μM, 1 μM, 0.3 μM . . . 0 μM. A dilution of DMSO was included as a control. The assay plate was set up as follows with each well in duplicate: 15 μL assay buffer+10 μL ENPP1 inhibitor or DMSO+50 μL Substrate+25 μL Enzyme. Both the enzyme and substrate were added to opposite sides of the well to ensure that there was no interaction until all wells had both components. The plate was then centrifuged gently for 10 seconds, followed by an incubation at 37° C. for 45 minutes. The reaction was quantified by measuring absorbance at 405 nm using the Envision.
IC50 values are determined using GraphPad Prism 5 software. The data were entered as an X-Y plot into the software as percent inhibition for each concentration of the drug. The concentration values of the drug were log transformed and the nonlinear regression was carried out using the “sigmoidal dose-response (variable slope)” option within the GraphPad software to model the data and calculate IC50 values. The IC50 values reported are the concentration of drug at which 50% inhibition was reached.

[2] = test system: Saos-2 Cells; experiment: ENPP1 Mineralization Assay; format: cell-based; settings: FIG. 9, mineralization components for 3 days
[3] = biological target: ENPP1 protein (Homo sapiens (Human), UniProt P22413); experiment: ENPP1 enzymatic assay with TMP substrate (FIG. 8); format: biochemical; settings: 5.0 ng ENPP1, 150 μM TMP substrate
Method: FIG. 8 depicts results of a similar experiment. 5.0 ng of ENPP1 protein exposed to increasing doses of inhibitor (compound 78 or compound 107-02) for 10 minutes in solution, followed by the addition of 150 μM of TMP substrate. The assay was then incubated for 20 minutes and then read at 405 nm on the envision plate reader.

[4] = biological target: Recombinant Human ENPP-1 Protein (purified in-house) (Homo sapiens (Human), UniProt P22413); experiment: ENPP1 Assay (ATP), Example 2; format: biochemical
Method: Assay Buffer: 1 mM CaCl2, 0.2 mM ZnCl2, 50 mM Tris, pH 9.0. Substrate: 100 μM Adenosine 5′-triphosphate disodium salt hydrate (Promega: V703A)—Assay Conc.: 10 μM. Enzyme: 1 ng/μL Recombinant Human ENPP-1 Protein (purified in-house)—Assay Conc.: 5 ng/well of DMSO in 96-well white assay plates. Cell Titer Glo (Promega, cat #G7572).
A ten point serial dilution of drugs was prepared in 10× in assay buffer with the final assay concentrations starting at 10 μM, 3 μM, 1 μM, 0.3 μM . . . 0 μM. A dilution of DMSO was included as a control. The assay plate was set up as follows with each well in duplicate: 75 μL assay buffer+10 μL ENPP1 inhibitor or DMSO Dilutions+10 μL Substrate+5 μL Enzyme (5 ng). Both the enzyme and substrate were added to opposite sides of the well to ensure that there was no interaction until all wells had both components. The plate was then centrifuged gently for 10 seconds, followed by incubation at RT for 20 minutes. To detect levels of ATP, Cell Titer Glo was added 1:1 to each well and incubated for 10 minutes. The reaction was quantified by measuring luminescence using the Envision Plate Reader.

[5] = test system: UWB1.289; experiment: Chou-Talalay Synergy Study with Olaparib, UWB1.289; format: cell-based; settings: UWB1.289, 72 hours
Method: Cell Lines: MDA-MB-468 and UWB289.1 (ATCC). Cell Titer Glo (Promega cat #: G7572). 96-well TC treated, white assay plates
Cells were cultured according to ATCC tissue culture recommendations. Cells were plated in a 96-well tissue culture plate at a density of 1500 cells/well and allowed to settle overnight. The following day, both drugs were prepared at 10× concentration in the following ratios (Compound 22:Olaparib): 1:1, 10:1, and 1:10. The drugs were serially diluted to create an 8-point dose curve and 10 μL of each drug was added to the cells for a total volume of 100 μL/well. Plates were placed in a tissue culture incubator for 72 hours. Following incubation, each plate was treated with Cell Titer Glo according to vendor recommendation and luminescence was measured with the Envision Plate Reader. Data was analyzed using CalcuSyn software according to the methods described in Chou, Drug combination studies and their synergy quantification using the Chou-Talalay method, Cancer Res. 2010 Jan. 15; 70(2):440-6.
A Combination index (CI) value greater than 1 indicates […], equal to 1 indicates additive and less than 1 indicates synergy.

Sequence of Recombinant Human ENPP-1 Protein (purified in-house) (P22413 whole entry, looked up): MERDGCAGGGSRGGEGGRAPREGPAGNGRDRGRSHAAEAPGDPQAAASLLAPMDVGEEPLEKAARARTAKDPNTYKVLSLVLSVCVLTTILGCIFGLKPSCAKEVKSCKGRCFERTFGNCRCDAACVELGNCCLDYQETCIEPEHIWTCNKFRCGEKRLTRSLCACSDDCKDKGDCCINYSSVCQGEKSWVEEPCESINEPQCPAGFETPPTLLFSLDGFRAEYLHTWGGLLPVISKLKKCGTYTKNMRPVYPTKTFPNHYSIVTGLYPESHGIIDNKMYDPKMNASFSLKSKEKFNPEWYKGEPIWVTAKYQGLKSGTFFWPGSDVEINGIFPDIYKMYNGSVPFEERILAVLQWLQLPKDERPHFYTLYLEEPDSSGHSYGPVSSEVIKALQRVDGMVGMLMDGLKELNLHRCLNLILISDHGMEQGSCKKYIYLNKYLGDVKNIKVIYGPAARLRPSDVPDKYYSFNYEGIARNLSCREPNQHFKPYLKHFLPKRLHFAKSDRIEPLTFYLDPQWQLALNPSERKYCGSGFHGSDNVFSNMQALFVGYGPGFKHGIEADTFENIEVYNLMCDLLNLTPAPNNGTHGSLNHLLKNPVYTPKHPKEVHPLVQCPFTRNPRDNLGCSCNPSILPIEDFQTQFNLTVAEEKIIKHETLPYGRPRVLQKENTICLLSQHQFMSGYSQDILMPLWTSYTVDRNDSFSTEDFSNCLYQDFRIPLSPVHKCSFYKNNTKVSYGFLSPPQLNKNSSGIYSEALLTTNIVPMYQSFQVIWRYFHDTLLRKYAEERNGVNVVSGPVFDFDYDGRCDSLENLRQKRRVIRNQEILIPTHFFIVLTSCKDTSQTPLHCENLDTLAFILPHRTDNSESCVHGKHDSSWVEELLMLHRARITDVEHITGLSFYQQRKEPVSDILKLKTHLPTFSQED
Sequence of ENPP1 protein (P22413 whole entry, looked up): as above

For `COc1ccc(NC(=O)CSc2nc3c(C)c(C#N)ncc3[nH]2)cc1O` [Compound 78, 2-((6-Cyano-7-methyl-3H-imidazo[4,5-c]pyridin-2-yl)thio)-N-(3-hydroxy-4-methoxyphenyl) acetamide], which “selective at inhibiting ENPP1 but not ENPP2” value [1] is on record?
The value was “selective”.

What about the “inhibiting the activity of ENPP2” value ([1]; FIGS. 2A and 2B) of the same compound?
Its value is “ineffective”.

What about the total mineralization [2] of the same compound?
Its total mineralization is “significant decrease”.

What about the enzymatic activity [3] of the same compound?
The enzymatic activity was “significant decrease”.

What about the IC50 ([4]; FIG. 5B, ATP substrate, read-out: IC50) of the same compound?
Its IC50 is 0.0731 µM.

What about the IC50 ([4]; Table 5, ATP substrate, read-out: ENPP1 (IC50 μM) ATP) of the same compound?
Its IC50 is 0.116 µM.

What about the “ED50 Drug Concentration Compound 78” value [5] of the same compound?
The value was 48800 nM.
